Key:
[1] = tested on: ATF4 expression, HEK293T cells carrying the ATF4 luciferase reporter; assay: ATF4 expression inhibition assay (ATF4 luciferase reporter); assay type: cell-based; conditions: Homo sapiens, HEK-293T, 100 nM thapsigargin, 3 hours
Experimental: The ATF4 reporter was prepared by fusing the human full length 5′UTR of ATF4 (NCBI Accession No. BC022088.2) upstream of the firefly luciferase coding sequence lacking the initiator methionine. The fused sequence was cloned into pLenti-EFla-C-Myc-DDK-IRES-Puro cloning vector (Origen #PS100085) using standard methods. Virus production was carried out by using Lenti-X™ Packaging Single Shots Protocol (Clonetech #631276). Viral particles were used to transduce HEK293T cells (ATCC #CRL-3216, ATCC Manassas, Va.), which were subsequently selected with puromycin to generate stable cell line. Cells were maintained at 37° C. and 5% CO2 in DMEM-F12 (Hyclone #SH30023.02) supplemented with 10% heat-inactivated fetal bovine serum (Gibco #16000-044), 2 mM L-glutamine (Gibco #25030-081), 100 U/ml penicillin, and 100 μg/ml streptomycin (Gibco #^15140-122).
HEK293T cells carrying the ATF4 luciferase reporter were plated on 96-well plates (Nunc) at 10,000 cells per well. Cells were treated two days after seeding with 100 nM thapsigargin (Tg) (Sigma-Aldrich #T9033) in the presence of different concentrations of selected compounds ranging from 1 nM to 10 μM. Cells without treatment or cells treated with Tg alone were used as controls. Assay plates containing cells were incubated for 3 hours at 37° C.
Luciferase reactions were performed using Luciferase Assay System (Promega #E1501) as specified by the manufacturer. Luminescence was read with an integration time of 1 s and a gain of 110 using a Cytation-5 multi-mode microplate reader (BioTek). Relative luminescence units were normalized to Tg treatment (0% inhibition) and untreated cells (100% inhibition) and the percentage of ATF4 inhibition was calculated.
Accordingly, inhibition of ATF4 expression as a result of the test compound indicates suppression of the ISR pathway.

[2] = tested on: Chinese hamster ovary (CHO) cells; assay: Protein synthesis assay (puromycin incorporation, western blot); assay type: cell-based; conditions: 2 hours, media alone = 100%; for activity at 1 µM: Cricetulus griseus, unstressed CHO cells (without Tg), 1 μM test compound, read-out: % Protein synthesis relative to untreated (1 μM test compound); for % Recovery of protein synthesis (1 μM test compound): stressed CHO cells, 300 nM Tg plus 1 μM test compound, Tg alone = 0%
Experimental: Chinese hamster ovary (CHO) cells were maintained at 37° C. and 5% CO2 in Dulbecco's Modified Eagle's Media (DMEM) supplemented with 10% fetal bovine serum, 2 mM L-glutamine, 100 U/ml penicillin, and 100 μg/ml streptomycin. After reaching 80% of confluence, cells were detached and seeded on 6 well plates in complete media, allowed to recover overnight and treated for 2 hours with 1 μM of the test compound (to assess protein synthesis levels in unstressed condition), or for 2 hours with 300 nM Tg in the presence of 1 μM of the test compound (to assess the recovery of protein synthesis in a stressed condition). Cells with Tg alone were used as controls.
After the 2 hours treatments, media were replaced by adding 10 μg/ml puromycin (Sigma Aldrich #P8833) in complete media for 30 min. Media were removed and cells were lysed with SDS-PAGE lysis buffer. Lysates were transferred to 1.5 ml tubes and sonicated for 3 min and total protein amount were quantified using BCA Protein Assay Kit (Pierce). Equal amount of protein (30 μg) was loaded on SDS-PAGE gels. Proteins were transferred onto […] PVDF membranes (BioRad) and probed with primary antibodies diluted in Tris-buffered saline supplemented with 0.1% Tween 20 (Merck #S6996184 505) and 3% bovine serum albumin (Rockland #BSA-50).
Puromycin (12D10) (Merck #MABE343) and j-actin (Sigma Aldrich #A5441) antibodies were used as primary antibody. A HRP-conjugated secondary antibody (Rockland) was employed to detect immune-reactive bands using enhanced chemiluminescence (ECL Western Blotting Substrate, Pierce). Quantification of protein bands was done by densitometry using ImageJ software.
Percent increase of protein synthesis in unstressed cells (without Tg treatment) in the presence of media alone or certain test compounds is shown in Table 3. The percentage levels were normalized to the media alone condition, which correspond to 100% protein synthesis.
Percent recovery of protein synthesis in stressed cells (with Tg treatment) due to the test compounds at 1 μM is also shown in Table 3. The levels were normalized to the media alone and Tg alone conditions, which correspond to 100% and 0% respectively.

SMILES | IC50 [1] [nM] | activity at 1 µM [2] [%] | % Recovery of protein synthesis (1 μM test compound) [2] [%]
O=C(COc1ccc(Cl)c(F)c1)N[C@H]1CC[C@H](CNC(=O)c2cccc(Cl)c2)CC1 [Compound 22, trans-3-chloro-N-((4-(2-(4-chloro-3-fluorophenoxy)acetamido)cyclohexyl)methyl)benzamide] | 10.9 | 83.3 | 54.6
CN1C[C@@H](C(=O)N[C@H]2CC[C@H](NC(=O)COc3ccc(Cl)cc3)CC2)Oc2ccc(Cl)cc21 [Compound 86, trans-(S)-6-chloro-N-(4-(2-(4-chlorophenoxy)acetamido)cyclohexyl)-4-methyl-3,4-dihydro-2H-benzo[b][1,4]oxazine-2-carboxamide] | 12.3 | 125 | 108.1
O=C(NC1CCN(CC(O)COc2ccc(Cl)c(F)c2)CC1)c1nc2ccc(Cl)cc2[nH]1 (stereo not shown) [Compound 4, 6-chloro-N-(1-(3-(4-chloro-3-fluorophenoxy)-2-hydroxypropyl)piperidin-4-yl)-1H-benzo[d]imidazole-2-carboxamide] | < 1000 | 164 | 246.6
O=C(COc1ccc(Cl)c(F)c1)NCC1CCN(CC(O)COc2ccc(Cl)c(F)c2)CC1 (stereo not shown) [Compound 5, 2-(4-chloro-3-fluorophenoxy)-N-((1-(3-(4-chloro-3-fluorophenoxy)-2-hydroxypropyl)piperidin-4-yl)methyl)acetamide] | > 1000 | 82.5 | 71.9
O=C(COc1ccc(Cl)c(F)c1)NC1CC2CCC1CN2CC(O)COc1ccc(Cl)c(F)c1 (stereo not shown) [Compound 2, 2-(4-chloro-3-fluorophenoxy)-N-(2-(3-(4-chloro-3-fluorophenoxy)-2-hydroxypropyl)-2-azabicyclo[2.2.2]octan-5-yl)acetamide] | < 1000 | 98.3 | 252.0
NC(=O)c1cc(Cl)ccc1OCC(=O)N[C@H]1CC[C@H](NC(=O)COc2ccc(Cl)cc2)CC1 [Compound 92] | 52.2 | 79.7 | 
O=C(N[C@H]1CC[C@H](CNC(=O)c2cc3cc(Cl)ccc3o2)CC1)c1ccc2cc(Cl)ccc2n1 [Compound 25, trans-6-chloro-N-(4-((5-chlorobenzofuran-2-carboxamido)methyl)cyclohexyl)quinoline-2-carboxamide] | 1.56 | 266 | 223.3
O=C(COc1ccc(Cl)c(F)c1)NC[C@H]1CC[C@H](NC(=O)COc2ccc(Cl)c(F)c2)CC1 [Compound 9, trans-2-(4-chloro-3-fluorophenoxy)-N-((4-(2-(4-chloro-3-fluorophenoxy)acetamido)cyclohexyl)methyl)acetamide] | 72.4 | 119 | 26.1
Cc1cc(Cl)ccc1OCC(=O)N[C@H]1CC[C@H](NC(=O)COc2ccc(Cl)cc2)CC1 [Compound 91, trans-2-(4-chloro-2-methylphenoxy)-N-(4-(2-(4-chlorophenoxy)acetamido)cyclohexyl)acetamide] | 28.7 | 94.8 | 
COc1ccc2oc(C(=O)NC[C@H]3CC[C@H](NC(=O)COc4ccc(Cl)c(F)c4)CC3)cc2c1 [Compound 16, trans-N-((4-(2-(4-chloro-3-fluorophenoxy)acetamido)cyclohexyl)methyl)-5-methoxybenzofuran-2-carboxamide] | 5.25 | 147 | 102.4
O=C(COc1ccc(Cl)c(F)c1)N[C@H]1CC[C@H](NC(=O)c2nc3ccc(Cl)cc3[nH]2)CC1 [Compound 3, trans-6-chloro-N-(4-(2-(4-chloro-3-fluorophenoxy)acetamido)cyclohexyl)-1H-benzo[d]imidazole-2-carboxamide] | < 1000 | 120 | 109.9
O=C(NC[C@H]1CC[C@H](NC(=O)c2cc3cc(Cl)ccc3o2)CC1)c1cc2cc(Cl)ccc2o1 [Compound 26, trans-5-chloro-N-((4-(5-chlorobenzofuran-2-carboxamido)cyclohexyl)methyl)benzofuran-2-carboxamide] | 0.6 | 173 | 113.4
CC(C)(C(=O)NC[C@H]1CC[C@H](NC(=O)COc2ccc(Cl)cc2)CC1)c1ccc(Cl)cc1 [Compound 31, trans-N-((4-(2-(4-chlorophenoxy)acetamido)cyclohexyl)methyl)-2-(4-chlorophenyl)-2-methylpropanamide] | < 1000 | 120 | 66.2
O=C(NC[C@H]1CC[C@H](NC(=O)COc2ccc(Cl)cc2)CC1)Nc1ccc(Cl)cc1 [Compound 93, trans-2-(4-chlorophenoxy)-N-(4-((3-(4-chlorophenyl)ureido)methyl)cyclohexyl)acetamide] | 3.88 | 88 | 69.1
O=C(COc1ccc(Cl)c(F)c1)N[C@H]1CC[C@H](CNC(=O)c2ccc(Cl)cc2)CC1 [Compound 17, trans-4-chloro-N-((4-(2-(4-chloro-3-fluorophenoxy)acetamido)cyclohexyl)methyl)benzamide] | 2.36 | 96.5 | 49.5
O=C(COc1ccc(Cl)c(F)c1)NC[C@H]1CC[C@H](NC(=O)c2ccc3cc(Cl)ccc3n2)CC1 [Compound 12, trans-6-chloro-N-(4-((2-(4-chloro-3-fluorophenoxy)acetamido)methyl)cyclohexyl)quinoline-2-carboxamide] | 120 | 200 | 187.4
O=C(COc1ccc(Cl)c(F)c1)N[C@H]1CC[C@H](CNC(=O)c2ccc(C(F)(F)F)cn2)CC1 [Compound 20, trans-N-((4-(2-(4-chloro-3-fluorophenoxy)acetamido)cyclohexyl)methyl)-5-(trifluoromethyl)picolinamide] | 2.43 | 75.6 | 34.8
O=C(COc1ccc(Cl)c(F)c1)NC[C@H]1CC[C@H](NCC(O)COc2ccc(Cl)c(F)c2)CC1 (stereo partly drawn) [Compound 14, trans-2-(4-chloro-3-fluorophenoxy)-N-((4-((3-(4-chloro-3-fluorophenoxy)-2-hydroxypropyl)amino)cyclohexyl)methyl)acetamide] | > 10000 | 150 | 53.2
O=C(Cc1ccc(Cl)cc1)NC[C@H]1CC[C@H](NC(=O)COc2ccc(Cl)c(F)c2)CC1 [Compound 29, trans-2-(4-chloro-3-fluorophenoxy)-N-(4-((2-(4-chlorophenyl)acetamido)methyl)cyclohexyl)acetamide] | 12.5 | 70.9 | 1.3
O=C(NC[C@H]1CC[C@H](NCCOc2ccc(Cl)c(F)c2)CC1)c1cc2cc(Cl)ccc2o1 [Compound 27, trans-5-chloro-N-((4-((2-(4-chloro-3-fluorophenoxy)ethyl)amino)cyclohexyl)methyl)benzofuran-2-carboxamide] | < 1000 | 126 | 38.1
